Reference: paper PMC9672079, “Micro-PET imaging of hepatitis C virus NS3/4A protease activity using a protease-activatable retention probe” (Frontiers in Microbiology, 2022)

Legend:
[1] = tested on: JFH-1-infected HCC36 cells; assay: Specific retention of probe via flow cytometry; type: cell-based, Human
Procedure: (§1) We also used the WT probe (GRKKRRQRRR-[…]-LKKKYK-FITC) and the scrambled sequence probe (GRKKRRQRRR-[…]-LKKKYK) that could not be activated by protease as a control group to test the specific retention of probe via flow cytometry. HCC36 cells, NS3/4A-HCC36 cells, or JFH-1-infected HCC36 cells were incubated with 10 μM TAT-ΔNS3/4A-FITC or 10 μM TAT-scrambled NS3/4A-FITC in the absence or presence of 2 μM telaprevir (NS3/4A protease inhibitor) at 37 °C for 1 h. The cells were washed with DMEM containing 10% serum three times per hour. After culturing for 1 or 8 h, the fluorescence of viable cells was observed via flow cytometry.
(§2) Supplementary file Image_5.TIF: Supplementary Figure 5 To evaluate the specific retention of probe via flow cytometry, we used the WT probe (GRKKRRQRRR-[…]-LKKKYK-FITC) and the scrambled sequence probe (GRKKRRQRRR-[…]-LKKKYK) that could not be activated by protease as a control group to test the specific retention of probe via flow cytometry. HCC36 cells, NS3/4A-HCC36 cells, or JFH-1-infected HCC36 cells were incubated with 10 μM TAT-ΔNS3/4A-FITC or 10 μM TAT-scrambled NS3/4A-FITC in the absence or presence of 2 μM telaprevir (NS3/4A protease inhibitor) at 37°C for 1 h. The cells were washed with DMEM containing 10% serum three times per hour. After culturing for 1 or 8 h, the fluorescence of viable cells was observed via flow cytometry. Click here for additional data file.

HCC36 cells [2] = assay: Specific retention of probe via flow cytometry; type: cell-based, Human; conditions: control HCC36 cells
Procedure: as §1, §2

NS3/4A-HCC36 cells [3] = assay: Specific retention of probe via flow cytometry; type: cell-based, Human
Procedure: as §1, §2

NS3/4A-HCC36 cells [4] = assay: Retention of TAT-ΔNS3/4A-FITC in cells, fluorescence microscopy; type: cell-based, Human; conditions: fluorescence microscope
Procedure: (§3) HCC36 or NS3/4A-HCC36 cells (1 × 10^5) were seeded with DMEM containing 10% serum in a 24-well plate at 37°C in a CO2 incubator overnight. The cells were incubated with 10 μM of TAT-ΔNS3/4A-FITC in the presence or absence of 2 μM telaprevir (purchased from Legend Star International, Taiwan) at 37°C for 1 h. After probe staining, the cells were washed using DMEM containing 10% serum per 20 min until the end of the experiment. After 8 h washing, the fluorescence of viable cells was observed under a fluorescence microscope at the indicated times (Axiovert 200, Carl Zeiss MicroImaging, GmbH, Germany).
(§4) FIGURE 2 Specific retention of TAT-ΔNS3/4A-FITC in NS3/4A-HCC36- and HCV-infected cells. HCC36 cells, NS3/4A-HCC36 cells, or JFH-1-infected HCC36 cells were incubated with 10 μM TAT-ΔNS3/4A-FITC in the absence or presence of 2 μM telaprevir (NS3/4A protease inhibitor) at 37°C for 1 h. The cells were washed with DMEM containing 10% serum three times per hour. After culturing for 1 or 8 h, the phase contrast and fluorescence of viable cells were observed under a fluorescence microscope. Scale bar: 100 μm.

[5] = tested on: NS3/4A-HCC36 and HCC36 tumors; assay: Histological analysis of FITC fluorescence in tumor sections after i.v. probe; type: in vivo, BALB/c nude mice; conditions: i.v. 500 μM (in 100 μL), 4 h after injection, frozen sections, n = 3 mice
Procedure: BALB/c nude mice (n = 3) bearing established HCC36 and NS3/4A-HCC36 (100–200 mm^3) tumors in their right and left hind legs, respectively, were intravenously injected with 500 μM (in 100 μL) TAT-ΔNS3/4A-FITC and sacrificed 4 h later. Tumors were excised and embedded in OCT compound (Tissue-Tek, CA) in liquid nitrogen. The adjacent tumor sections either directly detect the FITC-fluorescent intensity to observe the accumulation of TAT-ΔNS3/4A-FITC probe or stained with a 520 HCV protease Assay Kit (AnaSpec) to visualize NS3/4A activity. The sections were examined on an upright BX4 microscope (Olympus, Melville, NY, USA) or viewed under phase contrast or fluorescence fields on an inverted Axiovert 200 microscope (Carl Zeiss Microimaging, Thornwood, NY, USA).
FIGURE 3 Specific retention of TAT-ΔNS3/4A-FITC in NS3/4A-expressing tumors in vivo. Mice bearing established NS3/4A-HCC36 and HCC36 tumors were injected with 500 μM TAT-NS3/4A-FITC and sacrificed after 4 h. Sections of NS3/4A-HCC36 (upper panels) and HCC36 (lower panels) tumors were stained with 520 HCV protease Assay Kit (AnaSpec) to detect NS3/4A activity in tumor sections. FITC-derived fluorescence (green) and NS3/4A activity (red) were observed under a fluorescence microscope. Scale bar: 1 mm.

HCC36 cells [6] = assay: Retention of TAT-ΔNS3/4A-FITC in control cells, fluorescence microscopy; type: cell-based, Human; conditions: fluorescence microscope
Procedure: as §3
Infectious HCV particles were generated as previously described ([Hayashi et al., 2014]). HCC36 cells (1 × 10^5) were seeded in DMEM containing 10% serum in a 24-well plate at 37°C in a CO2 incubator overnight. The cells were infected with JFH-1 and incubated with or without 2 μM telaprevir. After 5 days, the parental HCC36 and JFH-1-infected cells were stained with 10 μM of TAT-ΔNS3/4A-FITCat 37 °C for 1 h. […] After 8 h washing, the fluorescence of viable cells was observed under a fluorescence microscope at the indicated times (Axiovert 200, Carl Zeiss MicroImaging, GmbH, Germany).
FIGURE 2 Specific retention of TAT-ΔNS3/4A-FITC in NS3/4A-HCC36- and HCV-infected cells. […] After culturing for 1 or 8 h, the phase contrast and fluorescence of viable cells were observed under a fluorescence microscope. […]

[7] = tested on: JFH-1-infected HCC36 cells; assay: Retention of TAT-ΔNS3/4A-FITC in HCV-infected cells, fluorescence microscopy; type: cell-based, Human; conditions: fluorescence microscope
Procedure: Infectious HCV particles were generated as previously described ([Hayashi et al., 2014]). HCC36 cells (1 × 10^5) were seeded in DMEM containing 10% serum in a 24-well plate at 37°C in a CO2 incubator overnight. The cells were infected with JFH-1 and incubated with or without 2 μM telaprevir. After 5 days, the parental HCC36 and JFH-1-infected cells were stained with 10 μM of TAT-ΔNS3/4A-FITCat 37 °C for 1 h. After probe staining, the cells were washed using DMEM containing 10% serum per 20 min until the end of the experiment. After 8 h washing, the fluorescence of viable cells was observed under a fluorescence microscope at the indicated times (Axiovert 200, Carl Zeiss MicroImaging, GmbH, Germany).
as §4

HEK293 cells = conditions: HEK293, 0.1–2,000 ug/ml, 72 h, cell viability by cellular ATP synthesis, compared with CPT-11
[8] = 10 μM probe 1 h, washed three times per hour, 8 h
[9] = 10 μM probe + 2 μM telaprevir, 8 h
[10] = 10 μM probe, 37°C, 1 h staining
[11] = 10 μM probe 1 h, washed every 20 min, 8 h

GRKKRRQRRR-DEDEDEDEMEECASH-LKKKYK-FITC [TAT-ΔNS3/4A-FITC]
fluorescence retention after culturing for 8 h [1, 8]: strong fluorescence of WT probe only accumulated in NS3/4A-HCC36 cells and HCV-infected HCC36 cells
fluorescence retention after 8 h in presence of telaprevir [1, 9]: could block via the 2 μM telaprevir
fluorescence after 1 h probe staining ([1]; 10 μM probe, 37°C, 1 h): strong fluorescence of WT probe accumulated in each cell
fluorescence retention after culturing for 8 h (HCC36 cells [2]; [8]): not in control HCC36 cells
fluorescence after 1 h probe staining (HCC36 cells [2]; 10 μM probe, 37°C, 1 h): strong fluorescence of WT probe accumulated in each cell
fluorescence retention after culturing for 8 h (NS3/4A-HCC36 cells [3]; [8]): strong fluorescence of WT probe only accumulated in NS3/4A-HCC36 cells
fluorescence retention after 8 h in presence of telaprevir (NS3/4A-HCC36 cells [3]; [9]): could block via the 2 μM telaprevir
fluorescence after 1 h probe staining (NS3/4A-HCC36 cells [3]; 10 μM probe, 37°C, 1 h): strong fluorescence of WT probe accumulated in each cell
fluorescence retention after culturing for 8 h (NS3/4A-HCC36 cells [4]; 10 μM probe 1 h, washed with DMEM 10% serum every 20 min, 8 h): strong fluorescence only accumulated in NS3/4A-HCC36 cells
fluorescence retention after 8 h in presence of NS3/4A inhibitor (NS3/4A-HCC36 cells [4]; [9]): did not accumulate
fluorescence accumulation after probe staining (NS3/4A-HCC36 cells [4]; [10]): strong fluorescence accumulated in each cell
FITC-derived fluorescence in NS3/4A-HCC36 tumor sections [5]: accumulated in the NS3/4A-HCC3 tumors
fluorescence retention after culturing for 8 h (HCC36 cells [6]; [11]): not in control HCC36 cells
fluorescence accumulation after probe staining (HCC36 cells [6]; [10]): strong fluorescence accumulated in each cell
fluorescence retention after culturing for 8 h [7, 11]: strong fluorescence only accumulated in NS3/4A-HCC36 cells and HCV-infected HCC36 cells
fluorescence retention after 8 h in presence of NS3/4A inhibitor [7, 9]: did not accumulate
fluorescence accumulation after probe staining [7, 10]: strong fluorescence accumulated in each cell
in vitro toxicity, growth of HEK293 (HEK293 cells): could not inhibit the growth of HEK293
